This note sets out measurements from ChEMBL document CHEMBL4393667, “Discovery of [1,2,4]Triazolo[4,3- a]pyridines as Potent Inhibitors Targeting the Programmed Cell Death-1/Programmed Cell Death-Ligand 1 Interaction” (J Med Chem, 2019).

As a reminder, the IC50 is the midpoint of a concentration-inhibition curve.

Assay [1] addresses T1, Programmed cell death protein 1/Programmed cell death 1 ligand 1 (Homo sapiens, UniProt Q15116+Q9NZQ7). The experiment in a line: Inhibition of human PD1/PDL1 protein-protein interaction after 15 mins by HTRF assay. The format is protein-complex assay.
The target of assay [2] is T1, Programmed cell death protein 1/Programmed cell death 1 ligand 1. The experiment in a line: Inhibition of human PD1/PDL1 protein-protein interaction in human PBMC-derived CD3-positive T cells co-cultured with human Hep3B cells expressing PDL1/OS-8 assessed as increase in IFNgamma secretion measured after 3 days.

T1 sequence (Q15116 whole entry): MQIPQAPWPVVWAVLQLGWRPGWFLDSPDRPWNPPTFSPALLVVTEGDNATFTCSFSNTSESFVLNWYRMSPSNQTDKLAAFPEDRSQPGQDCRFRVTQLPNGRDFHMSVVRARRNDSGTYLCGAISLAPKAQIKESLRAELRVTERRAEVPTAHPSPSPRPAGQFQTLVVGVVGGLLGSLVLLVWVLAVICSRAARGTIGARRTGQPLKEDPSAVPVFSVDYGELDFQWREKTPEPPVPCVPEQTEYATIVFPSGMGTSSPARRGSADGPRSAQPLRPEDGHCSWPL
T1 sequence (Q9NZQ7 whole entry): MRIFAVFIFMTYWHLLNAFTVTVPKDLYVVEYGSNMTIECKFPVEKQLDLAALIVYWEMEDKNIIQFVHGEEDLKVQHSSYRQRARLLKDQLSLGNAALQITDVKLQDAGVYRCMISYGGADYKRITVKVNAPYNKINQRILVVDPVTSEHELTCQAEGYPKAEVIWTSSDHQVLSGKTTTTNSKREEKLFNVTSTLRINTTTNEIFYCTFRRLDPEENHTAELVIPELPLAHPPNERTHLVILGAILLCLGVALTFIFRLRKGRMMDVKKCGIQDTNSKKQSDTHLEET

As for `Cc1c(NC(=O)c2cc(CNCCS(N)(=O)=O)cn3cnnc23)cccc1-c1ccccc1`, in assay [1], 834 nM corresponded to half-maximal inhibition (IC50).

Regarding `Cc1c(NC(=O)c2cc(CN(C)CCO)cn3cnnc23)cccc1-c1ccc2c(c1)OCCO2`, in assay [1], the half-maximal inhibitory concentration (IC50) is 238 nM.

On to `Cc1c(NC(=O)c2cc(CNCCO)cn3cnnc23)cccc1-c1ccc2c(c1)OCCO2`, for which, in assay [2], the inhibition result was “Dose-dependent effect”.

As to `Cc1c(NC(=O)c2cc(CN3CCN(C)CC3)cn3c(C)nnc23)cccc1-c1ccccc1`, in assay [1], the 50% inhibitory concentration (IC50) is > 10000 nM.

`Cc1c(NC(=O)c2cc(CN3CCN(C)CC3)cn3cnnc23)cccc1-c1ccccc1` had an IC50 in assay [1] of 1350 nM. This counts as single-digit micromolar.

Consider `Cc1c(NC(=O)c2cc(CN(C)CCO)cn3cnnc23)cccc1-c1ccccc1`, for which, in assay [1], half-maximal inhibition (IC50) required 755 nM.

`Cc1c(NC(=O)c2cc(CNCCO)cn3ccnc23)cccc1-c1ccccc1`: the IC50 in assay [1] is > 10000 nM.

As for `COC(=O)[C@@H](CO)NCc1cc(C(=O)Nc2cccc(-c3ccccc3)c2C)c2nncn2c1`, the IC50 in assay [1] was > 10000 nM.

Consider `Cc1c(NC(=O)c2cc(CN3CCCC[C@H]3C(=O)O)cn3cnnc23)cccc1-c1ccccc1`, for which the midpoint of inhibition in assay [1], the IC50, lay at 5130 nM.

In assay [1], `N#Cc1c(NC(=O)c2cc(CNCCO)cn3cnnc23)cccc1-c1ccc2c(c1)OCCO2` returned an IC50 of 275 nM. Compared with the last compound, the IC50 is about 19-fold lower.

For `CC(=O)NCCNCc1cc(C(=O)Nc2cccc(-c3ccc4c(c3)OCCO4)c2C)c2nncn2c1`, in assay [1], the IC50 was 566 nM.

In turn, `Cc1c(NC(=O)c2cc(CN(C)CC(O)CO)cn3cnnc23)cccc1-c1ccccc1` (stereo unspecified) showed an IC50 in assay [1] of 375 nM.

With `COC(=O)CNCc1cc(C(=O)Nc2cccc(-c3ccccc3)c2C)c2nncn2c1`, the IC50 in assay [1] was > 10000 nM.

Regarding `Cc1c(NC(=O)c2ccc(CN(C)CCO)n3cnnc23)cccc1-c1ccccc1`, the IC50 in assay [1] is > 10000 nM.

For the compound `Cc1c(NC(=O)c2cc(CN(C)CC(O)CO)cn3cnnc23)cccc1-c1ccc2c(c1)OCCO2` (stereo unspecified), the IC50 in assay [1] was 474 nM.

Regarding `CN(Cc1cc(C(=O)Nc2cccc(-c3ccc4c(c3)OCCO4)c2C#N)c2nncn2c1)CC(O)CO` (stereo unspecified), the IC50 in assay [1] worked out at 486 nM. This IC50 and that of the compound before are within 1.5-fold of each other.

Regarding `Cc1c(NC(=O)c2ccc(CNCCO)n3cnnc23)cccc1-c1ccccc1`, in assay [1], the IC50 is > 10000 nM.

`CC(=O)NCCNCc1cc(C(=O)Nc2cccc(-c3ccccc3)c2C)c2nccn2c1`: the IC50 in assay [1] is > 10000 nM.

The compound `CC(=O)NCCNCc1cc(C(=O)Nc2cccc(-c3ccccc3)c2C)c2nncn2c1` displayed an IC50 in assay [1] of 1490 nM.

For `Cc1c(NC(=O)c2cc(CNCCS(N)(=O)=O)cn3cnnc23)cccc1-c1ccc2c(c1)OCCO2`, half-maximal inhibition in assay [1] (IC50) was put at 3690 nM.

In the case of `CC(=O)NCCNCc1ccc(C(=O)Nc2cccc(-c3ccccc3)c2C)c2nncn12`, the IC50 in assay [1] was > 10000 nM.

As for `Cc1c(NC(=O)c2cc(CN(C)CCO)cn3ccnc23)cccc1-c1ccccc1`, the IC50 in assay [1] was > 10000 nM.

The compound `Cc1c(NC(=O)c2cc(CN[C@H](CO)C(=O)O)cn3cnnc23)cccc1-c1ccccc1` displayed an IC50 in assay [1] of 5570 nM. In other words, the single-digit micromolar range.

In assay [1], `Cc1c(NC(=O)c2cc(CN[C@H]3CC[C@H](O)CC3)cn3cnnc23)cccc1-c1ccccc1` came in with an IC50 of 968 nM. This IC50 is about 5.8-fold lower than that of the compound before.

For the compound `Cc1c(NC(=O)c2cc(CNCCNS(C)(=O)=O)cn3cnnc23)cccc1-c1ccc2c(c1)OCCO2`, in assay [1], the half-inhibitory concentration (IC50) was 988 nM.

The compound `Cc1c(NC(=O)c2cc(CNCC(N)=O)cn3cnnc23)cccc1-c1ccccc1` displayed an IC50 in assay [1] of 2940 nM.

Consider `COC(=O)[C@@H]1CCCCN1Cc1cc(C(=O)Nc2cccc(-c3ccccc3)c2C)c2nncn2c1`, for which, in assay [1], the IC50 is > 10000 nM.

Take `CS(=O)(=O)NCCNCc1cc(C(=O)Nc2cccc(-c3ccc4c(c3)OCCO4)c2C#N)c2nncn2c1`: it took 983 nM to reach half-maximal inhibition in assay [1] (IC50).

With `Cc1c(NC(=O)c2cc(CNCCO)cn3c(C)nnc23)cccc1-c1ccccc1`, the IC50 in assay [1] is > 10000 nM.

The compound `Cc1c(NC(=O)c2cc(CNCCO)cn3cnnc23)cccc1-c1ccccc1` registered an IC50 in assay [1] of 733 nM.

Compound `CC(=O)NCCNCc1cc(C(=O)Nc2cccc(-c3ccc4c(c3)OCCO4)c2C#N)c2nncn2c1` registered an IC50 in assay [1] of 367 nM. Against the preceding compound, the IC50 is about 2-fold lower.
